This note sets out measurements from PMC6767236, “Selective Cannabinoid 2 Receptor Agonists as Potential Therapeutic Drugs for the Treatment of Endotoxin-Induced Uveitis” (Molecules, 2019).

Where only a bound is given, the exact number is not on record here.

One data set deals with T1, human CB1R (Homo sapiens, UniProt P21554).
T1 construct: host or cells: CHO
The experiment in a line: cAMP assay, CHO cells expressing human CB1R. The format is cell-based. To be noted: read-out: hCB1R: cAMP EC50. As to the method: The effect of ligands on the forskolin-stimulated accumulation of cAMP was determined using the LANCE ULTRA cAMP kit as per the manufacturer’s instruction (Perkin-Elmer Life Sciences, Boston, MA, USA).
For human CB2R and CB1R, cAMP assays were performed using CHO cells stably expressing human CB2R or human CB1R (DiscoveRx, Fremont, CA, USA) using a cAMP-Nano-TRF detection kit (Roche Diagnostics, Penzberg, Germany). Cells were seeded 17–24 h prior to the experiment at a density of 3 × 10^4 cells per well in a black 96-well plate with clear flat bottom (Corning, Wiesbaden, Germany) and incubated in 5% CO2 at 37 °C in a humidified incubator. The growth medium was exchanged with Krebs Ringer bicarbonate buffer with 1 mmol/L 3-isobutyl-1-methylxanthine (IBMX), 0.1% fatty acid-free BSA and incubated at 30 °C for 60 min. Agonist was added to a final assay volume of 100 μL and the mixture was incubated for 30 min at 30 °C. The assay was stopped by the addition of 50 μL 3 × lysis reagent and shaken for 2 h at room temperature. The time-resolved fluorescence energy transfer was measured using an LF502 Nanoscan FLT (IOM, Berlin, Germany), equipped with a laser as excitation source. cAMP content was determined from the function of a standard curve spanning from 10 to 0.13 nmol/L cAMP. Efficacies are expressed as percent relative to 1 µM CP55940.

The test system of data set [1] is leukocyte-endothelial adhesion in the iridial microcirculation. The data set is described as follows: Endotoxin-induced uveitis (EIU), intravital microscopy, CB2R-/- mice. The note with it: topical 1.5% w/v, 6 h after LPS. The format is in vivo. An excerpt:
Male BALB/c wild-type (WT; 25-30 g; Charles River, QC, Canada) and age-matched (6–8 weeks) CB2R knockout mice (CB2R^-/-) were used for experiments. CB2R^-/- mice were obtained by crossing male C57BL/6J CB2R^-/- mice (strain B6.129P2-Cnr2tm1Dgen/J; Jackson Laboratory, Bar Harbor, ME, USA) with inbred BALB/c female mice (Charles River) for ten generations. Heterozygote mice from separate parents were then bred for a homozygote knock-out of the CB2R^-/-. CB2R^-/- was confirmed via genotyping using DNA extracted from ear punches and the Accustart II Mouse Genotyping Kit (Quanta Biosciences, MD, USA). […]
IVM was conducted as previously described in Toguri et al. (2014). […] The iridial microcirculation was observed using an Olympus OV100 Small Animal Imaging System (Olympus, Tokyo, Japan), which contains an MT-20 light source, fluorescence excitation from a xenon lamp (150 W) and an excitation filter for rhodamine-6G (excitation 515–560 nm, emission 590 nm). Images were captured in real-time by a black and white DP70 CCD C-mount camera and digitally recorded using HCImage software (Hamamatsu, Herrsching, Germany).
During IVM animals were placed on a heating pad in a stereotactic frame, and Tear-Gel® (Novartis Pharmaceuticals Canada Inc., Dorval, QC, Canada) was applied to their cornea. […] Two to four videos of each quadrant were recorded for 30 s each. […]

The next data set can be described thus: pKa. The note with it: read-out: pKa (basic). It counts as physicochemical.

T1 sequence (P21554 whole entry): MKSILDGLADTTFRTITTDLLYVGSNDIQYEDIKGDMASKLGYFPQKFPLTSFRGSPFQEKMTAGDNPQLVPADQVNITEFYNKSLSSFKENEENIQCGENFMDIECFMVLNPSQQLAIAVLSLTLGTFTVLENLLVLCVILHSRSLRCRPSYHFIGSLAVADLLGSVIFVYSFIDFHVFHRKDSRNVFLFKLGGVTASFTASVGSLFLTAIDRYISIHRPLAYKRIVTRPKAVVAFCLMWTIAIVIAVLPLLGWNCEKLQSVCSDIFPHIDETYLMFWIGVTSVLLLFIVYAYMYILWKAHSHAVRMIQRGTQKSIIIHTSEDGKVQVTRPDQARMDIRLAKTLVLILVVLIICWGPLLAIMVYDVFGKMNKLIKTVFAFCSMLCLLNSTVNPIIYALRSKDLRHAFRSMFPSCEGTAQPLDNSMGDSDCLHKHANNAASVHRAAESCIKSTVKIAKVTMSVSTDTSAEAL

As for `CNC(=O)[C@@H](NC(=O)c1cc(OCC2(C)COC2)c(C2CC2)cn1)C(C)(C)C` [RO6851228, 5-Cyclopropyl-N-[(2S)-3,3-dimethyl-1-(methylamino)-1-oxobutan-2-yl]-4-[(3-methyloxetan-3-yl)methoxy]pyridine-2-carboxamide], the EC50 at human CB1R was over 10 µM.
`CC(C)(C)c1nc(N2CC[C@H](O)C2)c2nnn(Cc3nnnn3C3CC3)c2n1` [RO6871304, (3S)-1-{5-tert-butyl-3-[(1-cyclopropyl-1H-tetrazol-5-yl)methyl]-3H-[1,2, 3]triazolo[4,5-d]pyrimidin-7-yl}pyrrolidin-3-ol]: in data set [1], the “leukocyte adherence in CB2R-/- mice with EIU” value is recorded as “no significant reduction in leukocyte adherence”. Besides, in “pKa”, the pKa was found to be 2.7.
